US12215140B2, “Method of stabilizing protein contained in specimen and solution for stabilizing protein contained in specimen” (EIKEN KAGAKU KABUSHIKI KAISHA, priority 2018, dated 2025)

System: hemoglobin-haptoglobin complex
Test: Stability of hemoglobin (as hemoglobin-haptoglobin complex) in samples preserved at 37° C. in preservation solution containing 1 unit/L haptoglobin, Hb measured by latex agglutination method (Examples 1 to 7)
Set-up: species or system human
Conditions: 37° C.
Summary of the method: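 Hemoglobin (~300 µg/L) in 0.5% fecal suspension, or without feces, held at 37 °C for 0–21 days in 40 mmol/L HEPES pH 6.8, 0.1% BSA, 0.1% NaN3, 1 unit/L haptoglobin, with 0–100 mmol/L phenylboronic acid ± sugars. Hb quantified by latex agglutination with anti-human Hb rabbit polyclonal; recovery (%) relative to day 0.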

[1] = Feces 1, sugar 50 mmol/L + phenylboronic acid 15 mmol/L, 0 days
[2] = Feces 1, sugar 50 mmol/L + phenylboronic acid 15 mmol/L, 7 days
[3] = Feces 1, sugar 50 mmol/L + phenylboronic acid 15 mmol/L, 14 days
[4] = Feces 1, sugar 50 mmol/L + phenylboronic acid 15 mmol/L, 21 days
[5] = Feces 1, sugar 100 mmol/L + phenylboronic acid 0.5 mmol/L, 0 days
[6] = Feces 1, sugar 100 mmol/L + phenylboronic acid 0.5 mmol/L, 7 days
[7] = Feces 1, sugar 100 mmol/L + phenylboronic acid 0.5 mmol/L, 14 days
[8] = Feces 1, sugar 100 mmol/L + phenylboronic acid 15 mmol/L, 0 days
[9] = Feces 1, sugar 100 mmol/L + phenylboronic acid 15 mmol/L, 0 days (Table 7)
[10] = Feces 1, sugar 100 mmol/L + phenylboronic acid 15 mmol/L, 7 days
[11] = Feces 1, sugar 100 mmol/L + phenylboronic acid 15 mmol/L, 7 days (Table 7)
[12] = Feces 1, sugar 100 mmol/L + phenylboronic acid 15 mmol/L, 14 days
[13] = Feces 1, sugar 100 mmol/L + phenylboronic acid 15 mmol/L, 14 days (Table 7)
[14] = Feces 1, sugar 100 mmol/L + phenylboronic acid 15 mmol/L, 21 days
[15] = Feces 1, sugar 100 mmol/L + phenylboronic acid 50 mmol/L, 0 days
[16] = Feces 1, sugar 100 mmol/L + phenylboronic acid 50 mmol/L, 7 days
[17] = Feces 1, sugar 100 mmol/L + phenylboronic acid 50 mmol/L, 14 days
[18] = Feces 1, sugar 100 mmol/L, no phenylboronic acid, 0 days
[19] = Feces 1, sugar 100 mmol/L, no phenylboronic acid, 7 days
[20] = Feces 1, sugar 100 mmol/L, no phenylboronic acid, 14 days
[21] = Feces 1, sugar 100 mmol/L, no phenylboronic acid, 21 days
[22] = Feces 2, sugar 50 mmol/L + phenylboronic acid 15 mmol/L, 0 days
[23] = Feces 2, sugar 50 mmol/L + phenylboronic acid 15 mmol/L, 7 days
[24] = Feces 2, sugar 50 mmol/L + phenylboronic acid 15 mmol/L, 14 days
[25] = Feces 2, sugar 50 mmol/L + phenylboronic acid 15 mmol/L, 21 days
[26] = Feces 2, sugar 100 mmol/L + phenylboronic acid 0.5 mmol/L, 0 days
[27] = Feces 2, sugar 100 mmol/L + phenylboronic acid 0.5 mmol/L, 7 days
[28] = Feces 2, sugar 100 mmol/L + phenylboronic acid 0.5 mmol/L, 14 days
[29] = Feces 2, sugar 100 mmol/L + phenylboronic acid 15 mmol/L, 0 days
[30] = Feces 2, sugar 100 mmol/L + phenylboronic acid 15 mmol/L, 0 days (Table 7)
[31] = Feces 2, sugar 100 mmol/L + phenylboronic acid 15 mmol/L, 7 days
[32] = Feces 2, sugar 100 mmol/L + phenylboronic acid 15 mmol/L, 7 days (Table 7)
[33] = Feces 2, sugar 100 mmol/L + phenylboronic acid 15 mmol/L, 14 days
[34] = Feces 2, sugar 100 mmol/L + phenylboronic acid 15 mmol/L, 14 days (Table 7)
[35] = Feces 2, sugar 100 mmol/L + phenylboronic acid 15 mmol/L, 21 days
[36] = Feces 2, sugar 100 mmol/L + phenylboronic acid 50 mmol/L, 0 days
[37] = Feces 2, sugar 100 mmol/L + phenylboronic acid 50 mmol/L, 7 days
[38] = Feces 2, sugar 100 mmol/L + phenylboronic acid 50 mmol/L, 14 days
[39] = Feces 2, sugar 100 mmol/L, no phenylboronic acid, 0 days
[40] = Feces 2, sugar 100 mmol/L, no phenylboronic acid, 7 days
[41] = Feces 2, sugar 100 mmol/L, no phenylboronic acid, 14 days
[42] = Feces 2, sugar 100 mmol/L, no phenylboronic acid, 21 days
[43] = Feces 3, sugar 50 mmol/L + phenylboronic acid 15 mmol/L, 0 days

SMILES: OC[C@@H](O)[C@@H](O)[C@H](O)[C@@H](O)CO [Sorbitol, sorbitol]
- Hb concentration [1]: 291 µg/L
- Recovery ratio with respect to Hb concentration after 0 days [1]: 100%
- Hb concentration [2]: 300 µg/L
- Recovery ratio with respect to Hb concentration after 0 days [2]: 103%
- Hb concentration [3]: 300 µg/L
- Recovery ratio with respect to Hb concentration after 0 days [3]: 103%
- Hb concentration [4]: 296 µg/L
- Recovery ratio with respect to Hb concentration after 0 days [4]: 102%
- Hb concentration [5]: 310 µg/L
- Recovery ratio with respect to Hb after 0 days [5]: 100%
- Hb concentration [6]: 206 µg/L
- Recovery ratio with respect to Hb after 0 days [6]: 66%
- Hb concentration [7]: 178 µg/L
- Recovery ratio with respect to Hb after 0 days [7]: 57%
- Hb concentration [8]: 287 µg/L
- Recovery ratio with respect to Hb concentration after 0 days [8]: 100%
- Hb concentration [9]: 301 µg/L
- Recovery ratio with respect to Hb after 0 days [9]: 100%
- Hb concentration [10]: 292 µg/L
- Recovery ratio with respect to Hb concentration after 0 days [10]: 102%
- Hb concentration [11]: 297 µg/L
- Recovery ratio with respect to Hb after 0 days [11]: 99%
- Hb concentration [12]: 294 µg/L
- Recovery ratio with respect to Hb concentration after 0 days [12]: 102%
- Hb concentration [13]: 295 µg/L
- Recovery ratio with respect to Hb after 0 days [13]: 98%
- Hb concentration [14]: 290 µg/L
- Recovery ratio with respect to Hb concentration after 0 days [14]: 101%
- Hb concentration [15]: 281 µg/L
- Recovery ratio with respect to Hb after 0 days [15]: 100%
- Hb concentration [16]: 274 µg/L
- Recovery ratio with respect to Hb after 0 days [16]: 98%
- Hb concentration [17]: 275 µg/L
- Recovery ratio with respect to Hb after 0 days [17]: 98%
- Hb concentration [18]: 283 µg/L
- Recovery ratio with respect to Hb concentration after 0 days [18]: 100%
- Hb concentration [19]: 143 µg/L
- Recovery ratio with respect to Hb concentration after 0 days [19]: 51%
- Hb concentration [20]: 102 µg/L
- Recovery ratio with respect to Hb concentration after 0 days [20]: 36%
- Hb concentration [21]: 97 µg/L
- Recovery ratio with respect to Hb concentration after 0 days [21]: 34%
- Hb concentration [22]: 281 µg/L
- Recovery ratio with respect to Hb concentration after 0 days [22]: 100%
- Hb concentration [23]: 280 µg/L
- Recovery ratio with respect to Hb concentration after 0 days [23]: 100%
- Hb concentration [24]: 252 µg/L
- Recovery ratio with respect to Hb concentration after 0 days [24]: 90%
- Hb concentration [25]: 222 µg/L
- Recovery ratio with respect to Hb concentration after 0 days [25]: 79%
- Hb concentration [26]: 301 µg/L
- Recovery ratio with respect to Hb after 0 days [26]: 100%
- Hb concentration [27]: 173 µg/L
- Recovery ratio with respect to Hb after 0 days [27]: 57%
- Hb concentration [28]: 154 µg/L
- Recovery ratio with respect to Hb after 0 days [28]: 51%
- Hb concentration [29]: 274 µg/L
- Recovery ratio with respect to Hb concentration after 0 days [29]: 100%
- Hb concentration [30]: 299 µg/L
- Recovery ratio with respect to Hb after 0 days [30]: 100%
- Hb concentration [31]: 276 µg/L
- Recovery ratio with respect to Hb concentration after 0 days [31]: 101%
- Hb concentration [32]: 300 µg/L
- Recovery ratio with respect to Hb after 0 days [32]: 100%
- Hb concentration [33]: 246 µg/L
- Recovery ratio with respect to Hb concentration after 0 days [33]: 90%
- Hb concentration [34]: 298 µg/L
- Recovery ratio with respect to Hb after 0 days [34]: 100%
- Hb concentration [35]: 219 µg/L
- Recovery ratio with respect to Hb concentration after 0 days [35]: 80%
- Hb concentration [36]: 275 µg/L
- Recovery ratio with respect to Hb after 0 days [36]: 100%
- Hb concentration [37]: 279 µg/L
- Recovery ratio with respect to Hb after 0 days [37]: 101%
- Hb concentration [38]: 284 µg/L
- Recovery ratio with respect to Hb after 0 days [38]: 103%
- Hb concentration [39]: 277 µg/L
- Recovery ratio with respect to Hb concentration after 0 days [39]: 100%
- Hb concentration [40]: 113 µg/L
- Recovery ratio with respect to Hb concentration after 0 days [40]: 41%
- Hb concentration [41]: 77 µg/L
- Recovery ratio with respect to Hb concentration after 0 days [41]: 28%
- Hb concentration [42]: 51 µg/L
- Recovery ratio with respect to Hb concentration after 0 days [42]: 18%
- Hb concentration [43]: 283 µg/L
- Recovery ratio with respect to Hb concentration after 0 days [43]: 100%
